{"source": "patent US9694010B2", "about": "“Therapeutic formulation and methods of treatment” (MacuCLEAR, Inc., priority 2012, dated 2017)", "key": {"[1]": {"system": "ARPE-19 cells", "experiment": "tBHP-induced toxicity, MTT assay", "details": "24 hours; for cell viability (maximum protection): 100 μg/mL of hydralazine, P<0.001", "method": "(§1) The human RPE cell line ARPE-19 (ATCC; Manassas, Va.) was cultured in Dulbecco's Modified Essential Medium (DMEM) supplemented with 10% fetal bovine serum, 50 units/mL penicillin-streptomycin and 2.5 mM glutamine at 37° incubation with 5% CO2. The cell line was not transformed and had structure and function properties characteristic of RPE in vivo. The cells were seeded into 96-well plates, and subconfluent cell monolayers were studied within 3 to 10 passages. Before starting the experimental procedures, the medium was removed and replaced with phenol red-free low-glucose DMEM supplemented with 1% calf serum, 0.06% glutamine, and 1% penicillin-streptomycin.\n(§2) The cells were used for experiments when they reached 80% confluence to prevent contact inhibition.\n(§3) After the 24-hour exposure, the MTT reagent solution (5 mg/mL) was added to each well in a ratio of 1:10 MTT reagent:culture medium volume. The cultures were incubated with the MTT reagent for 3 hours at 37° C. At the end of incubation, the MTT solution was removed, and 0.1 mL of dimethyl sulfoxide (DMSO) was added to each well to solubilize the purple formazan product. The proportion of viable cells was determined by measuring the optical density (OD) of each sample at 570 nm (A570) using a SpectraCount plate reader (Packard BioScience, Meridan, Conn.). The relationship between the OD readings in the MTT colorimetric assay and the exact cell number was determined by seeding cells at identical densities and then performing the MTT assay and manual hemocytometer cell counts on parallel replicate cultures. Trypan blue was added to the hemocytometer cultures so that only viable, dye-excluding cells were counted. This approach enabled the establishment of a standard curve for A570 versus cell number.\n(§4) All data were presented as mean±standard error. A nonpaired Student t test was performed to analyze the significance between 2 means at a certain time point. The differences were considered significant at P<0.05. Results for nitric oxide measurements were expressed in μM nitrite and nitrate per 1×10^6 cells."}, "[2]": {"system": "ARPE-19 cells", "details": "24 hours; for cell viability (maximum protection): P<0.001", "method": "as §1, §2, §3, §4"}, "[3]": {"system": "ARPE-19 cells", "details": "1% O2, 1 μg/mL of hydralazine, P<0.001", "method": "In vitro hypoxia treatment was carried out using a ProOx hypoxia system. […] In hypoxia, oxygen concentrations of 1% O2 and 5% CO2 were maintained using a temperature- and humidity-controlled environmental C-chamber by O2 and CO2 controllers (ProOx Model 110 and ProCO2 Model 120; BioSpherix Ltd., Redfield, N.Y.) with N2 and CO2 gas sources. Reactions were stopped by washing out the medium, and 5 mg/mL MTT at a dilution of 1:10 based on the volume of culture medium was added for 3 hours at 37° C. At the end of incubation, the MTT solution was removed, and the cells were dissolved in 0.1 mL/well DMSO. The proportion viable cells were determined by measuring the OD of each sample at 570 nm using a SpectraCount plate reader (Packard BioScience, Meridan, Conn.)."}, "[4]": {"system": "ARPE-19 cells", "details": "NaN3 0.1-100 mM, hydralazine 1, 3, 10, 30, 100 μg/mL", "experimental": "RPE cells were washed and replaced with fresh DMEM-F12 medium containing various concentrations of NaN3 (0.1 mM-100 mM). […] Reactions were stopped by washing out the medium."}, "[5]": {"details": "cited from earlier work; for systemic bioavailability: gastrointestinal absorption"}, "[6]": {"system": "Human Umbilical Vein Endothelial Cells (HUVEC)", "experiment": "In vitro tube formation", "details": "100 μg/ml, 48 hours"}, "[7]": {"details": "25° C., pH 3.5, cationic form; obtained by extrapolation", "excerpt": "In one embodiment, the hydralazine for use in the formulation is a hydralazine salt such as hydralazine hydrochloride."}, "[8]": {"method": "Choroidal blood flow, velocity and volume were assessed following the first dosing of test material on each day. […] Measurements were made using a Laser Doppler Flowmetry device, which is a state-of-the-art, non-invasive and quantitative approach for visualizing and measuring subfoveal choroidal blood flow.\nThere was a trend of increased mean choroidal blood volume and velocity values in hydralazine hydrochloride-treated eyes, which peaked approximately 2 hours after topical ocular dosing on day 1 and returned to baseline values approximately 4 hours after dosing (i.e., 2 hours later). […] By contrast, in normal/healthy subjects both mean values and associated standard deviations (SDs) remained low at all time points on day 1. • Odds ratio analyses of the choroidal blood flow outcomes between the AMD and Normal groups for day 1 were evaluated."}, "[9]": {"system": "rabbit eye", "experiment": "28-day repeat dose ocular toxicity", "type": "in vivo, Dutch Belted rabbits", "method": "Hydralazine hydrochloride ophthalmic solutions were prepared essentially as described in Example 1 at concentrations of 0.0% (vehicle), 0.5% hydralazine hydrochloride, 1.0% hydralazine hydrochloride, and 2.0% hydralazine hydrochloride. The formulation, vehicle or control was administered daily for 28 days to the designated eye of forty Dutch Belted rabbits (5 males and 5 females per group) as shown in Table 2. […]\nA modified Hackett and McDonald microscopic ocular grading system (Hackett 1996) was applied to ocular findings following the use of a slit-lamp biomicroscope, which included insertion of a blue filter to assess for fluorescein dye retention. For any evaluated microscopic ocular examination parameter, there were no statistically significant differences, in either male or female rabbits, between Group 1 and Groups 2-4 during the pre dose or Day 29 study measurement periods.\nMean tonometry (Tono-pen; Reichert Ophthalmic Instruments, Depew, N.Y.) readings of IOP in control and test rabbits pre-dose and on Day 29 were between 15-25 mmHg, which is within the normal physiologic range. […]"}, "[10]": {"details": "all subjects"}}, "note": "Structures can show the parent of a compound that is named as a salt. Where two headings read alike, the source gives them in different places.", "data": [{"smiles": "NNc1nncc2ccccc12", "note": "[hydralazine]", "values": [{"measurement": "cell viability (maximum protection)", "setting": "[1]; insult 0.01 mM tBHP", "result": "109.99%±2.41%"}, {"measurement": "cell viability (maximum protection)", "setting": "[1]; insult 0.03 mM tBHP", "result": "100.84%±13.00%"}, {"measurement": "cell viability (maximum protection)", "setting": "[2]; insult 0.3 mM H2O2 (second statement), 30 μg/mL of hydralazine", "result": "68.04%±0.67%"}, {"measurement": "cell viability (maximum protection)", "setting": "[2]; insult 0.3 mM H2O2, 30 μg/mL of hydralazine", "result": "74.30% ±0.80%"}, {"measurement": "cell viability (maximum reversion)", "setting": "[3]; 48 hours", "result": "101.21%±0.54%"}, {"measurement": "cell viability (maximum reversion)", "setting": "[3]; 72 hours", "result": "103.55%±1.75%"}, {"measurement": "effect on NaN3 chemically-induced hypoxia (viable cells)", "setting": "[4]", "result": "no significant effect"}, {"measurement": "systemic clearance", "setting": "[5]; exceeds hepatic blood flow", "result": 50, "unit": "mL/min/kg"}, {"measurement": "systemic bioavailability", "setting": "[5]; fast acetylators", "result": 16, "unit": "%"}, {"measurement": "systemic bioavailability", "setting": "[5]; slow acetylators", "result": 35, "unit": "%"}, {"measurement": "plasma half-life", "setting": "[5]; in vivo", "result": "3 to 7", "unit": "h"}, {"measurement": "time of peak concentration in plasma and maximal hypotensive effect", "setting": "[5]; orally administered", "result": "30 to 120", "unit": "min"}, {"measurement": "effect on HUVEC", "setting": "[6]", "result": "caused apoptosis"}]}, {"smiles": "CC(C)(C)OO", "note": "[tBHP, Tert-Butyl hydroperoxide]", "values": [{"measurement": "cell viability", "setting": "[1]; 0.01 mM tBHP alone", "result": "89.90%±2.80%"}, {"measurement": "cell viability", "setting": "[1]; 0.03 mM tBHP alone", "result": "55.80%±4.08%"}]}, {"smiles": "NNc1nncc2ccccc12", "note": "[hydralazine hydrochloride, Hydralazine hydrochloride]", "values": [{"measurement": "rate constant (time with less than a 10% loss)", "setting": "[7]", "result": 1.5, "unit": "years"}, {"measurement": "odds ratio, choroidal blood volume outcome, AMD vs Normal group", "setting": "[8]; day 1, 60 minute time point (p=0.337)", "result": 0.22}, {"measurement": "odds ratio, choroidal blood volume outcome, AMD vs Normal group", "setting": "[8]; day 1, 120 minute time point (p=0.106)", "result": 6.67}, {"measurement": "time of peak of mean choroidal blood volume and velocity", "setting": "[8]; day 1, after topical ocular dosing, back to baseline approximately 4 hours after dosing", "result": "approximately 2 hours"}, {"measurement": "choroidal blood flow, mean scores", "setting": "[8]; treated eyes in AMD subjects", "result": "trend towards improved mean scores"}, {"measurement": "dose-related toxicologic changes", "setting": "[9]; 28 days of daily topical ocular treatment, 0.5-2.0%, 40 μL", "result": "did not result in the development of significant doserelated toxicologic changes"}, {"measurement": "ocular histopathology", "setting": "[9]; daily application of up to 2.0% for 28 days", "result": "did not result in the development of ocular pathology, inflammation, degeneration, or histologic evidence of toxicity"}, {"measurement": "average time to resolution of ocular hyperemia", "setting": "[10]; range 1 to 4 days", "result": 1.85, "unit": "days"}, {"measurement": "ocular hyperemia, treated eyes", "setting": "[10]; hydralazine hydrochloride-treated eyes, 1 vehicle-treated eye", "result": 21, "unit": "eyes"}]}, {"smiles": "OO", "note": "[Formulation H2O2, hydrogen peroxide]", "values": [{"measurement": "cell viability", "setting": "[2]; 0.3 mM H2O2 alone", "result": "48.74%±2.40%"}, {"measurement": "cell viability", "setting": "[2]; 1.0 mM H2O2 alone", "result": "41.28%±0.80%"}]}]}
